According to US4708966A, “Novel anti-inflammatory agents, pharmaceutical compositions and methods for reducing inflammation” (The Procter & Gamble Company, priority 1986, dated 1987):

Tests used:
[1] = test system: arachidonic acid-induced inflamed mouse ear; assay: Arachidonic Acid-Induced Inflamed Mouse Ear Test; type: in vivo, Adult male Cox ICR mice
Description: Arachidonic Acid-Induced Inflamed Mouse Ear Test
All drugs are dissolved with arachidonic acid in the vehicle. At the end of 3 hours, animals are sacrificed by cervical dislocation and both ears are removed. A 5 mm punch biopsy is removed from both ears and is weighed to the nearest 0.1 mg on a Cahn electrobalance. Ten animals are used per group. The study usually consists of 4 to 6 groups, of which one is a control group which is treated on the left ear with only arachidonic acid in the vehicle. The results are expressed as percent inhibition of the swelling response compared to the control group. Statistical tests for significance between groups are made using a one way analysis of variance of the ear weight differences. ID50 values are determined by regression analysis.

[2] = test system: adjuvant arthritis (modified Freund's adjuvant); assay: Adjuvant Arthritis - Immunomodulatory; type: in vivo, Male Sprague-Dawley rats; settings: 15 mg/kg, 2 x/day, day -1 through day 7
Description: Adjuvant Arthritis Methodology
Male Sprague-Dawley rats weighing 167-170 gm are allowed to acclimate to the laboratory for at least 3 days. Ten rats are then assigned to the healthy control group and the remaining rats are assigned to the arthritic group. On day 0, the rats in the arthritic group are injected subcutaneously in the middle of their tail with a modified Freund's adjuvant (MFA) at a dosage of 0.05 ml/100 gm body weight. The MFA is made by grinding Mycobacterium butyricum (Mb) and then mixing with mineral oil at a concentration of 10 mg Mb/ml of mineral oil. This is mixed in an Omni mixer for 45 minutes.
Paw volumes and body weights are determined on days -1, 6, 13, 19, 26, and 29. On day 19, paw volume changes from day -1 are determined for the arthritic group. The rats with paw volume changes≥0.50 ml but ≤2.50 ml are randomized by paw volume changes into the treatment groups on day 20. On days 20 through 28, the rats are orally dosed twice a day (once a day on weekends). On day 29, two representative rats from each treatment group are photographed, paw volumes and body weights are determined, and then the rats are sacrificed with CO2 and x-rays are taken.
The radiographs are used to grade bone resorption. Bone resorption is graded in 20 areas of the fore and hind paws. The areas for grading on the hind paw are: distal femur end, proximal tibia and tibula, distal end of the tibia and the small bone under the tibia, calcaneous, tarsus, and metatarsus. The areas on the fore paws are: radius, ulna, carpus, and metacarpus. Each area is given a grade of 0 (no resorption) or 1 (resorption) for possible grade of 20 of each animal.
The same procedures as for the therapeutic, except the rats are randomly assigned to the treatment groups including the healthy control group by body weights on day -2. Paw volumes and body weights are determined on days -1, 6, 13, 20, and 27. The rats are treated from day -1 through day 7. The rats are sacrificed on day 28 and x-rayed. The radiographs are graded as above using a severity scale from 0 (no resorption) to 3 (severe resorption).

lipoxygenase ("LOX") = assay: inhibition of lipoxygenase in arachidonic acid metabolism; type: biochemical
oral analgesic activity = type: in vivo; settings: "peripheral" type, compared to aspirin
Description: (§1) In order to determine and assess pharmacological activity, testing of these compounds in animals is carried out using various assays known to those skilled in the art. […] Examples of such known tests include the carrageenan rat edema test, the oxazolone-induced inflamed mouse ear test, and the arachidonic acid-induced inflamed mouse ear test. Anti-pyretic acitivity may be tested using art-known rat models, and analgesic acitivty may be tested in art-known models such as the acetylcholine model in mice, the Randall-Selitto model in rats, and the hot-plate test in mice. Another useful art-known test is the adjuvant arthritis test which is a useful model for assessing anti-inflammatory activity and anti-resorptive activity in a chronic, rather than acute, model.

[3] = test system: carrageenan rat paw edema; assay: Carrageenan Rat Paw Edema Test; type: in vivo, Male Sprague-Dawley rats
Description: Carrageenan Rat Paw Edema Test
Male Sprague-Dawley rats (Charles River Laboratories) are weighed and food fasted overnight. The animals are then divided into four to six groups of six animals each according to body weights (average about 145 g) so that each group has about the same average body weight (within 10 g).
The following morning animals are dosed with the test compound and then placed in individual cages. For oral dosing, the drug is suspended in 0.5% methyl cellulose with 2% Tween 80, and delivered via stomach tube in a 5 ml volume.
Paw volumes (0 time) are determined on both hind paws with a mercury displacement device equipped with a transducer and digitizer. One hour after dosing the test compound, the animals are placed in a plastic restrainer and 50 ul of a 1% (w/w) carrageenan solution in 0.9% saline is injected into the ventral surface of the left rear paw. Four hours after the carrageenan injection, the paw volumes are again determined.
The results are expressed as percent inhibition of the mean paw volume of the test group relative to the control group. Statistical differences are determined by one way analysis of variance. ID35 values are determined by regression analysis.

[4] = toxicity (acute oral toxicity); type: in vivo; settings: test animals
inflammation = assay: anti-inflammatory activity in animal models of inflammation; type: in vivo
Description: as §1
These and other appropriate tests for pharmacological activity are disclosed and/or referred to in U.S. Pat. No. 4,130,666, issued Dec. 19, 1978 to Moore; U.S. Pat. No. 4,440,784, issued Apr. 3, 1984 to Katsumi et al.; Japanese patent application No. 85/54315, published Mar. 28, 1985 by Katsumi et al.; European Patent Application Publication No. 59,090, published Sept. 1, 1982 by Yamanouchi Pharmaceutical Co., Ltd.; "Prostaglandin and Leukotriene Synthesis in Mouse Ears Inflamed by Arachidonic Acid", The Journal of Investigative Dermatology, 84, pp. 253-256 (1985); U.S. Pat. No. 4,431,656, issued Feb. […]

cyclooxygenase ("COX") = assay: inhibition of cyclooxygenase in arachidonic acid metabolism; type: biochemical

With C#CCCCC(=O)c1cc(C(C)(C)C)c(O)c(C(C)(C)C)c1 [Compound 11, 4-(5'-hexynoyl)-2,6-di-t-butylphenol] the inhibition in vivo at 50 µg/ear ([1]; Mus musculus, 50 ug/ear topical, 3 hours, read-out: Percent Inhibition at 50 ug/ear topical dose) was 43.9%, the ID50 ([1]; topical, by regression analysis) was 20.7 ug/ear and the “Body Weights % Increase” value [2] was 30%. The “Paw Volume % Decrease” value [2] was 48%, the “Bone Resorption % Inhibition” value ([2]; severity scale 0-3) was 57% and the “inhibition of lipoxygenase (LOX)” value (lipoxygenase ("LOX")) was “dual inhibitor”. The oral analgesic activity (oral analgesic activity) was “superior to aspirin”, the ED35 ([3]; 4 h, oral, by regression analysis, read-out: ID35) was 4.8 mg/kg and the inhibition in vivo at 100 mg/kg ([3]; po, 100 mg/kg P.O., paw volume 4 h after carrageenan, vs control group, read-out: Percent Inhibiton at 100 mg/kg dose P.O) was 67.6%. For the same molecule, the acute oral toxicity [4] was “very low acute oral toxicity”, the “oral activity in several animal models of inflammation” value (inflammation) was “very good oral activity” and the “inhibition of cyclooxygenase (COX)” value (cyclooxygenase ("COX")) was “dual inhibitor”.
